Assays:
Assay type in all cases: in vivo
[1] = tested on: Amaranthus retroflexus; assay: Post-emergence herbicidal action against AMARE (greenhouse pot test); details: visual rating after ca. 3 weeks vs untreated controls (100% = plants dead, 0% = like controls)
Text: (§1) Die folgenden Abkürzungen werden für die in den folgenden Tabellen aufgeführten Kultur- und Schadpflanzen verwendet: ABUTH: Abutilon theophrasti ALOMY: Alopecurus myosuroides AMARE: Amaranthus retroflexus BRSNS: Brassica napus DIGSA: Digitaria sanguinalis ECHCG: Echinochloa crus-galli GLXMA: Glycine max KCHSC: Kochia scoparia LOLRI: Lolium rigidum MATIN: Matricaria inodora ORYZA: Oryza sativa PHPBU: Pharbitis purpurea POLCO: Polygonum convolvulus SETVI: Setaria viridis VERPE: Veronica persica VIOTR: Viola tricolor TRZAS: Triticum aestivum ZEAMX: Zea mays
(§2) Samen von mono- bzw. dikotylen Unkrautpflanzen wurden in Kunststoff- oder Holzfasertöpfen in sandigem Lehmboden ausgelegt, mit Erde abgedeckt und im Gewächshaus unter kontrollierten Wachstumsbedingungen angezogen. 2 bis 3 Wochen nach der Aussaat wurden die Versuchspflanzen im Einblattstadium behandelt. Die in Form von benetzbaren Pulvern (WP) oder als Emulsionskonzentrate (EC) formulierten erfindungsgemäßen Verbindungen wurden dann als wässrige Suspension bzw. Emulsion unter Zusatz von 0,5% Additiv mit einer Wasseraufwandmenge von umgerechnet 600 1/ha auf die grünen Pflanzenteile gesprüht. Nach ca. 3 Wochen Standzeit der Versuchspflanzen im Gewächshaus, unter optimalen Wachstumsbedingungen, wurde die Wirkung der Präparate visuell im Vergleich zu unbehandelten Kontrollen bonitiert. Beispielsweise bedeutet 100% Wirkung = Pflanzen sind abgestorben, 0% Wirkung = wie Kontrollpflanzen.
(§3) In den nachstehenden Tabellen A1 bis A11 sind die Wirkungen ausgewählter Verbindungen der allgemeinen Formel (I) gemäß der Tabelle 1 auf verschiedene Schadpflanzen und einer Aufwandmenge entsprechend 80 g/ha und niedriger, die gemäß zuvor genannter Versuchsvorschrift erhalten wurden, dargestellt. Tabelle A1a: Nachauflaufwirkung bei 5 g/ha gegen ABUTH in %

[2] = tested on: Zea mays; assay: Post-emergence action on crop plants, ZEAMX (greenhouse pot test); details: 5 g/ha, crop plant
Text: as §1
as §2, with “Kulturpflanzen” for “Unkrautpflanzen”
(§4) In den nachstehenden Tabellen B1 bis B3 sind die Wirkungen ausgewählter Verbindungen der allgemeinen Formel (I) gemäß der Tabelle 1 auf verschiedene Kulturpflanzen und einer Aufwandmenge entsprechend 20 g/ha und niedriger, die gemäß zuvor genannter Versuchsvorschrift erhalten wurden, dargestellt. Tabelle B1a: Nachauflaufwirkung bei 5 g/ha gegen ZEAMX in %

[3] = tested on: Oryza sativa; assay: Post-emergence action on crop plants, ORYZA (greenhouse pot test); details: 5 g/ha
Text: as §1
as §2, with “Kulturpflanzen” for “Unkrautpflanzen”
as §4

[4] = tested on: Viola tricolor; assay: Post-emergence herbicidal action against VIOTR (greenhouse pot test)
Text: as §1, §2, §3

[5] = tested on: Veronica persica; assay: Post-emergence herbicidal action against VERPE (greenhouse pot test)
Text: as §1, §2, §3

[6] = tested on: Digitaria sanguinalis; assay: Post-emergence herbicidal action against DIGSA (greenhouse pot test); details: visual rating after ca. 3 weeks vs untreated controls (100% = plants dead, 0% = like controls)
Text: as §1, §2, §3

[7] = tested on: Pharbitis purpurea; assay: Post-emergence herbicidal action against PHBPU (greenhouse pot test)
Text: as §1, §2, §3

[8] = tested on: Alopecurus myosuroides; assay: Post-emergence herbicidal action against ALOMY (greenhouse pot test); details: visual rating after ca. 3 weeks vs untreated controls (100% = plants dead, 0% = like controls)
Text: as §1, §2, §3

[9] = tested on: Polygonum convolvulus; assay: Post-emergence herbicidal action against POLCO (greenhouse pot test)
Text: as §1, §2, §3

[10] = tested on: Setaria viridis; assay: Post-emergence herbicidal action against SETVI (greenhouse pot test)
Text: as §1, §2, §3

[11] = tested on: Triticum aestivum; assay: Post-emergence action on crop plants, TRZAS (greenhouse pot test); details: crop plant
Text: as §1
as §2, with “Kulturpflanzen” for “Unkrautpflanzen”
as §4

[12] = tested on: Lolium rigidum; assay: Post-emergence herbicidal action against LOLRI (greenhouse pot test); details: visual rating after ca. 3 weeks vs untreated controls (100% = plants dead, 0% = like controls)
Text: as §1, §2, §3

[13] = tested on: Abutilon theophrasti; assay: Post-emergence herbicidal action against ABUTH (greenhouse pot test); details: visual rating after ca. 3 weeks vs untreated controls (100% = plants dead, 0% = like controls)
Text: as §1, §2, §3

[14] = tested on: Matricaria inodora; assay: Post-emergence herbicidal action against MATIN (greenhouse pot test); details: for Nachauflaufwirkung gegen MATIN: visual rating after ca. 3 weeks vs untreated controls (100% = plants dead, 0% = like controls); for Nachauflaufwirkung gegen MATIN in %: 80 g/ha
Text: as §1, §2, §3

COCCOC(=O)C(C)(C)OC(=O)c1cc(-n2c(=O)cc(C(F)(F)F)n(C)c2=O)c(F)cc1Cl [I.1-1]
Nachauflaufwirkung gegen AMARE ([1]; 5 g/ha): 100%
Nachauflaufwirkung gegen AMARE ([1]; 20 g/ha): 100%
Nachauflaufwirkung gegen AMARE ([1]; 80 g/ha): 100%
Nachauflaufwirkung gegen ZEAMX in % [2]: 10%
Nachauflaufwirkung gegen ORYZA in % [3]: 20%
Nachauflaufwirkung gegen VIOTR in % ([4]; 5 g/ha): 100%
Nachauflaufwirkung gegen VIOTR in % ([4]; 20 g/ha): 100%
Nachauflaufwirkung gegen VIOTR in % ([4]; 80 g/ha): 100%
Nachauflaufwirkung gegen VERPE in % ([5]; 5 g/ha): 100%
Nachauflaufwirkung gegen VERPE in % ([5]; 20 g/ha): 100%
Nachauflaufwirkung gegen VERPE in % ([5]; 80 g/ha): 100%
Nachauflaufwirkung gegen DIGSA ([6]; 5 g/ha): 100%
Nachauflaufwirkung gegen DIGSA ([6]; 20 g/ha): 100%
Nachauflaufwirkung gegen DIGSA ([6]; 80 g/ha): 100%
Nachauflaufwirkung gegen PHBPU in % ([7]; 5 g/ha): 80%
Nachauflaufwirkung gegen PHBPU in % ([7]; 20 g/ha): 100%
Nachauflaufwirkung gegen PHBPU in % ([7]; 80 g/ha): 100%
Nachauflaufwirkung gegen ALOMY ([8]; 20 g/ha): 100%
Nachauflaufwirkung gegen ALOMY ([8]; 80 g/ha): 100%
Nachauflaufwirkung gegen POLCO in % ([9]; 5 g/ha): 100%
Nachauflaufwirkung gegen POLCO in % ([9]; 20 g/ha): 100%
Nachauflaufwirkung gegen POLCO in % ([9]; 80 g/ha): 100%
Nachauflaufwirkung gegen SETVI in % ([10]; 5 g/ha): 100%
Nachauflaufwirkung gegen SETVI in % ([10]; 20 g/ha): 100%
Nachauflaufwirkung gegen SETVI in % ([10]; 80 g/ha): 100%
Nachauflaufwirkung gegen TRZAS in % ([11]; 5 g/ha): 10%
Nachauflaufwirkung gegen LOLRI ([12]; 20 g/ha): 100%
Nachauflaufwirkung gegen LOLRI ([12]; 80 g/ha): 100%
Nachauflaufwirkung gegen ABUTH ([13]; 5 g/ha): 100%
Nachauflaufwirkung gegen ABUTH ([13]; 20 g/ha): 100%
Nachauflaufwirkung gegen ABUTH ([13]; 80 g/ha): 100%
Nachauflaufwirkung gegen MATIN ([14]; 5 g/ha): 100%
Nachauflaufwirkung gegen MATIN ([14]; 20 g/ha): 100%
Nachauflaufwirkung gegen MATIN in % [14]: 100%

Cn1c(C(F)(F)F)cc(=O)n(-c2cc(C(=O)OC(C)(C)C(=O)OCc3ccccn3)c(Cl)cc2F)c1=O [I.1-286]
Nachauflaufwirkung gegen AMARE ([1]; 5 g/ha): 100%
Nachauflaufwirkung gegen AMARE ([1]; 20 g/ha): 100%
Nachauflaufwirkung gegen AMARE ([1]; 80 g/ha): 100%
Nachauflaufwirkung gegen ZEAMX in % [2]: 20%
Nachauflaufwirkung gegen ORYZA in % [3]: 0%
Nachauflaufwirkung gegen VIOTR in % ([4]; 5 g/ha): 100%
Nachauflaufwirkung gegen VIOTR in % ([4]; 20 g/ha): 100%
Nachauflaufwirkung gegen VIOTR in % ([4]; 80 g/ha): 100%
Nachauflaufwirkung gegen VERPE in % ([5]; 5 g/ha): 100%
Nachauflaufwirkung gegen VERPE in % ([5]; 20 g/ha): 100%
Nachauflaufwirkung gegen VERPE in % ([5]; 80 g/ha): 100%
Nachauflaufwirkung gegen DIGSA ([6]; 5 g/ha): 100%
Nachauflaufwirkung gegen DIGSA ([6]; 20 g/ha): 100%
Nachauflaufwirkung gegen DIGSA ([6]; 80 g/ha): 100%
Nachauflaufwirkung gegen PHBPU in % ([7]; 5 g/ha): 100%
Nachauflaufwirkung gegen PHBPU in % ([7]; 20 g/ha): 100%
Nachauflaufwirkung gegen PHBPU in % ([7]; 80 g/ha): 100%
Nachauflaufwirkung gegen ALOMY ([8]; 20 g/ha): 100%
Nachauflaufwirkung gegen ALOMY ([8]; 80 g/ha): 100%
Nachauflaufwirkung gegen POLCO in % ([9]; 5 g/ha): 100%
Nachauflaufwirkung gegen POLCO in % ([9]; 20 g/ha): 100%
Nachauflaufwirkung gegen POLCO in % ([9]; 80 g/ha): 100%
Nachauflaufwirkung gegen SETVI in % ([10]; 5 g/ha): 100%
Nachauflaufwirkung gegen SETVI in % ([10]; 20 g/ha): 100%
Nachauflaufwirkung gegen SETVI in % ([10]; 80 g/ha): 100%
Nachauflaufwirkung gegen TRZAS in % ([11]; 5 g/ha): 10%
Nachauflaufwirkung gegen TRZAS in % ([11]; 20 g/ha): 20%
Nachauflaufwirkung gegen LOLRI ([12]; 20 g/ha): 90%
Nachauflaufwirkung gegen LOLRI ([12]; 80 g/ha): 100%
Nachauflaufwirkung gegen ABUTH ([13]; 5 g/ha): 100%
Nachauflaufwirkung gegen ABUTH ([13]; 20 g/ha): 100%
Nachauflaufwirkung gegen ABUTH ([13]; 80 g/ha): 100%
Nachauflaufwirkung gegen MATIN ([14]; 5 g/ha): 100%
Nachauflaufwirkung gegen MATIN ([14]; 20 g/ha): 100%
Nachauflaufwirkung gegen MATIN in % [14]: 100%
